In one data set the target is Bcl-xL (Homo sapiens, UniProt Q07817). The data set can be described thus: Kd, μM | Bcl-xL. The source says:
(§1) Table printed on a drawing sheet, Figure 27
Head of the field: Kd, μM | Bcl-xL
Where the first naming reader finds the target: head: Kd, μM | Bcl-xL

In a further data set the target is Mcl-1. The data set can be described thus: Kd, μM | Mcl-1.
From the text: as §1
Head of the field: Kd, μM | Mcl-1
(§2) First copying reader's note: The last row (ABT-737) is a small-molecule comparator; the three plots above the table are not copied.
Where the first naming reader finds the target: head: Kd, μM | Mcl-1

The subject of the next data set is SEMK2. It counts as cell-based, human. Conditions: 24 h. In short, it runs like this: (§3)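 Cells (4000/well) in Opti-MEM were exposed to macrocycles at final 0.6–20 μM serum-free or 1.5–50 μM in 2% human serum for 24 h at 37° C. CellTiter-Glo luminescence was expressed as percent of DMSO-only control, in duplicate, giving EC50 values.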
The subject of another data set is OVCAR8. It counts as cell-based, human. The note with it: 24 h. In short, it runs like this:
as §3

In another data set the test system is Jurkat. The class given is cell-based, human. Conditions: 24 h. In short, it runs like this: as §3
The next data set relates to NCI-H82 (SCLC-MCL1+). It counts as cell-based, human. Conditions: 24 h. In short, it runs like this: as §3
In the next data set the test system is A375. The class given is cell-based, human. The note with it: 24 h. In short, it runs like this:
as §3

The subject of another data set is Molt-4. It counts as cell-based, human. Conditions: 24 h. In short, it runs like this: as §3
A further data set deals with MM1S. It counts as cell-based, human. Conditions: 24 h. In short, it runs like this: as §3
For the next data set, the system named is PC3. The class given is cell-based, human. Conditions: 24 h. In short, it runs like this: as §3
In the next data set the test system is RS4;11. The class given is cell-based, human. Conditions: 24 h. In short, it runs like this:
as §3

In the next data set the test system is MDA-MB231-Met. The class given is cell-based, human. Conditions: 24 h. In short, it runs like this:
as §3

In a further data set the test system is DHL-6. It counts as cell-based, human. The note with it: 24 h. In short, it runs like this:
as §3

A further data set concerns Raji. The class given is cell-based, human. The note with it: 24 h. In short, it runs like this:
as §3

Data set [1] can be described thus: Melting temperature determination by circular dichroism. It counts as physicochemical. Conditions: 50 μM in ddH2O, CD at 222 nm, 5-95° C. As to the method:
To assay the effect of macrocycle formation on meltine temperature, peptidomimetic macrocycles or unmodified peptides are dissolved in distilled H2O (e.g. at a final concentration of 50 μM) and the Tm is determined by measuring the change in ellipticity over a temperature range (e.g. 4 to 95° C.) on a spectropolarimeter (e.g., Jasco J-710) using standard parameters (e.g. wavelength 222 nm; step resolution, 0.5 nm; speed, 20 nm/sec; accumulations, 10; response, 1 sec; bandwidth, 1 nm; temperature increase rate: 1° C./min; path length, 0.1 cm).
Lyophilized SP-1 was dissolved in ddH2O to a final concentration of 50 μM. Tm was determined by measuring the circular dichroism (CD) spectra in a Jasco-810 spectropolarimeter at a fixed wavelength of 222 nm between the temperatures of 5-95° C. The following parameters were used for the measurement: data pitch, 0.1° C.; bandwidth, 1 nm and path length, 0.1 cm averaging the signal for 16 seconds.
A general note: Circular dichroism is the unequal absorption of left and right circularly polarised light.

The subject of a further data set is activated hPBLs. As to the kind of experiment: BrdU cell proliferation assay. The note with it: hPBLs activated by PMA+ionomycin+LPS; 5 or 20 μM, 48 hrs; compared with 1 μM Rapamycin. It counts as cell-based, human. As to the method: […] 1 μM Rapamycin was used as a positive control to inhibit BrdU incorporation. BrdU incorporation was assayed by ELISA according to manufacturer's instructions (Roche, catalog number 11444611001).

The target in another data set is Bcl-2. The data set can be described thus: Kd, μM | Bcl-2.
From the text: as §1
Head of the field: Kd, μM | Bcl-2
as §2
Where the first naming reader finds the target: head: Kd, μM | Bcl-2

Numbered stars: 1 amine (or outer) side, 2 acyl side, 3 side chain; on linkers, the order of the positions; unused ones are H or OH. Bridge positions count the residues as written; N and C are the ends. Square brackets hold non-standard residues; d marks the D form. Peptide text beside a SMILES is read from it. ξ: configuration not given here. ξαMeNle(6-ylidene) = CC(CCCC=[*:3])(N[*:1])C(=O)[*:2]; Nle = CCCC[C@H](N)C(=O)O

Sequence of Bcl-xL (Q07817 whole entry, looked up): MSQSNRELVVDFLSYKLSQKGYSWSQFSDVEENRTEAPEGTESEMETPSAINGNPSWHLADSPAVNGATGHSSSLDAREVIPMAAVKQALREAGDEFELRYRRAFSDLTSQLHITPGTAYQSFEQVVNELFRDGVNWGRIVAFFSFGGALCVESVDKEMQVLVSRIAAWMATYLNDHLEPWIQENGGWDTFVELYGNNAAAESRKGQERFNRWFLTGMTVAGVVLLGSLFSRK

With `CCCC[C@H](NC(=O)C1(C)CCCC=CCCCC(C)(NC(=O)[C@H](C)NC(=O)[C@H](CC(C)C)NC(=O)[C@H](Cc2c[nH]cn2)NC(=O)[C@H](CCCNC(=N)N)NC(=O)[C@H](C)NC(=O)[C@@H](NC(=O)[C@H](CC(N)=O)NC(=O)[C@H](CCCNC(=N)N)NC(=O)[C@@H](NC(=O)[C@@H](NC(=O)[C@H](CC(=O)O)NC(C)=O)[C@@H](C)CC)[C@@H](C)CC)[C@@H](C)CC)C(=O)N[C@@H](C(C)C)C(=O)NCC(=O)N[C@@H](CC(=O)O)C(=O)N1)C(=O)N[C@@H](CC(=O)O)C(=O)N[C@@H](CCCNC(=N)N)C(=O)N[C@@H](CO)C(=O)N[C@H](C(N)=O)[C@@H](C)CC` (some centres unmarked) [SP-1] (Ac-DIIRNIARHLA[ξαMeNle(6-ylidene)]VGD[ξαMeNle(6-ylidene)][Nle]DRSI-NH2; staple 12-16), the Kd (commonly a measure of binding affinity in units of concentration) at Bcl-xL is less than 0.1 µM; at Mcl-1, less than 0.1 µM; on Bcl-2, 1 µM. Also, the EC50 (in general, the concentration that produces a half-maximal response) is 10 µM in the data set on SEMK2; 20 µM in the data set with OVCAR8; 2.5 µM in the data set on Jurkat; 2.5 µM with NCI-H82 (SCLC-MCL1+); 11 µM with A375; 4.3 µM in the data set with Molt-4. The EC50 in the data set with MM1S is 3.5 µM; in the data set on PC3, 20 µM; with RS4;11, greater than 20 µM; in the data set on MDA-MB231-Met, 9.8 µM; in the data set with DHL-6 it was 7 µM; in the data set with Raji it was 13 µM. Moreover, in data set [1], the “temperature up to which helical conformation is maintained” value is “up to 64 °C”. Further, the “blocking the proliferation of activated hPBLs (BrdU incorporation)” value with activated hPBLs is recorded as “as effective as rapamycin”.

The record behind these values is patent US20150038430A1, “THERAPEUTIC PEPTIDOMIMETIC MACROCYCLES” (AILERON Therapeutics, Inc., priority 2008, published 2015).
